US12150995B2, “IRAK degraders and uses thereof” (Kymera Therapeutics, Inc., priority 2020, dated 2024)

Biological target: T1, IRAK4 (Homo sapiens, UniProt Q9NWZ3)
T1 construct: endogenous in cells; host or cells: OCI-LY10
T1 sequence (Q9NWZ3 1-460): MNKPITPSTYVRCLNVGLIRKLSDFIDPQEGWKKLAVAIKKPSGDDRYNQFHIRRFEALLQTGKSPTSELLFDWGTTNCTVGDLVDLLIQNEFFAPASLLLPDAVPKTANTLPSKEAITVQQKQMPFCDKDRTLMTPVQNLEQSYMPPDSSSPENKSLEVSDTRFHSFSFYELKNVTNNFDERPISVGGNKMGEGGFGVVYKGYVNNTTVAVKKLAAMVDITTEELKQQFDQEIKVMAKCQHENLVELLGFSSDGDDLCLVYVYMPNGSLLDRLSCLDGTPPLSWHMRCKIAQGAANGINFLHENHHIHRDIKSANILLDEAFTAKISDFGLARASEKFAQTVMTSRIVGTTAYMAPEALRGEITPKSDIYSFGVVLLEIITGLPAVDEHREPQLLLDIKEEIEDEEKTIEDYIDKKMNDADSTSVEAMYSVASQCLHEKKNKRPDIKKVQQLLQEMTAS
Experiment: IRAK4 MSD Degradation in OCI-LY10
Type: cell-based
Conditions: OCI-LY10 cells, Meso Scale Discovery, incubated 4 to 24 hours
How it was run: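 IRAK4 degradation was quantified by Meso Scale electrochemiluminescence (anti-IRAK4 capture and detection antibodies) in lysates of treated OCI-LY10 cells. Compounds were dosed at 8 concentrations (1:3 dilutions, top 1 to 10 μM) for 4 to 24 h; DC50 derived by three-parameter logistic fitting.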

| Compound | DC50 [nM] |
| --- | --- |
| COc1cc2nn([C@H]3CC[C@H](CN(C)C4CCN(c5cccc6c5n(C)c(=O)n6C5CCC(=O)NC5=O)CC4)CC3)cc2cc1NC(=O)n1ccc2cccnc21 (stereo partly shown) [I-113] | < 10 |
| COc1cc2nn([C@H]3CC[C@H](CN4CCC(c5ccc(F)c6c5n(C)c(=O)n6C5CCC(=O)NC5=O)CC4)CC3)cc2cc1NC(=O)c1cccc(C(F)(F)F)n1 (stereo partly shown) [I-51] | < 10 |
| COc1cc2nn([C@H]3CC[C@H](CN4CCC(c5cccc6c5n(C)c(=O)n6C5CCC(=O)NC5=O)CC4(C)C)CC3)cc2cc1NC(=O)c1cccc(C(F)(F)F)n1 (stereo partly shown) [I-424] | < 10 |
| COc1cc2nc([C@H]3CC[C@H](CN(C)CCCCNc4cccc5c4C(=O)N(C4CCC(=O)NC4=O)C5=O)CC3)sc2cc1NC(=O)c1cncc(C#N)c1 (stereo partly shown) [I-456] | > 200 |
| COc1cc2nn([C@H]3CC[C@H](CN4CCC5(CC4)CC(CNc4cccc6c4C(=O)N(C4CCC(=O)NC4=O)C6=O)C5)CC3)cc2cc1NC(=O)c1cccc(C(C)(F)F)n1 (stereo partly shown) [I-4] | 50 to 100 |
| COc1cc2nn([C@H]3CC[C@H](CN4CCC(c5cccc6c5n(C)c(=O)n6C5CCC(=O)NC5=O)CC4)CC3)cc2cc1NC(=O)n1ccc2cccnc21 (stereo partly shown) [I-112] | < 10 |
| CC(C)c1cc2nn([C@H]3CC[C@H](CN4CCN(c5cccc6c5n(C)c(=O)n6C5CCC(=O)NC5=O)CC4)CC3)cc2cc1NC(=O)c1cccc(C(F)(F)F)n1 (stereo partly shown) [I-397] | < 10 |
| COc1cncc(C(=O)Nc2cc3sc([C@H]4CC[C@H](CN(C)CCCNc5cccc6c5C(=O)N(C5CCC(=O)NC5=O)C6=O)CC4)nc3cc2OC)c1 (stereo partly shown) [I-450] | > 200 |
| CN(CCCCNc1cccc2c1C(=O)N(C1CCC(=O)NC1=O)C2=O)C[C@H]1CC[C@H](c2nc3cc(C(C)(C)O)c(NC(=O)c4cccc(C(F)(F)F)n4)cc3s2)CC1 (stereo partly shown) [I-447] | < 10 |
| COc1cc2nn([C@H]3CC[C@H](CN4C[C@@H]5C[C@H]4CN5c4cccc5c4n(C)c(=O)n5C4CCC(=O)NC4=O)CC3)cc2cc1NC(=O)c1cccc(C(F)(F)F)n1 (stereo partly shown) [I-168] | < 10 |
| CC(C)Nc1cc(-n2ccc3cc(C#N)cnc32)ncc1C(=O)N[C@H]1CC[C@H](CN2CCC(c3cccc4c3n(C)c(=O)n4C3CCC(=O)NC3=O)CC2)CC1 (stereo partly shown) [I-114] | < 10 |
| COc1cc2nn([C@H]3C[C@H](CN4CCC(c5c(F)ccc6c5n(C)c(=O)n6C5CCC(=O)NC5=O)CC4)C3)cc2cc1NC(=O)c1cccc(C(F)(F)F)n1 (stereo partly shown) [I-141] | 10 to 50 |
| COc1cc2nn([C@H]3CC[C@H](CN(C)C4CCN(c5c(Cl)ccc6c5n(C)c(=O)n6C5CCC(=O)NC5=O)CC4)CC3)cc2cc1NC(=O)c1cccc(C(F)(F)F)n1 (stereo partly shown) [I-53] | 10 to 50 |
| CN(CCCCNc1cccc2c1C(=O)N(C1CCC(=O)NC1=O)C2=O)C[C@H]1CC[C@H](c2nc3cc(C(C)(C)O)c(NC(=O)c4cccc(C#N)n4)cc3s2)CC1 (stereo partly shown) [I-445] | < 10 |
| Cn1c(=O)n(C2CCC(=O)NC2=O)c2cccc(N3CCN(C[C@H]4CC[C@H](n5cc6cc(NC(=O)c7cccc(C(F)(F)F)n7)c(C#N)cc6n5)CC4)CC3)c21 (stereo partly shown) [I-363] | < 10 |
| Cc1cc2nn([C@H]3CC[C@H](CN4CCN(c5cccc6c5n(C)c(=O)n6C5CCC(=O)N(C)C5=O)CC4)CC3)cc2cc1NC(=O)c1cccc(C(F)(F)F)n1 (stereo partly shown) [I-404] | > 200 |
| COc1cc2nn([C@H]3CC[C@H](CN(C)C4CCN(c5ccc6c(N7CCC(=O)NC7=O)cncc6c5)CC4)CC3)cc2cc1NC(=O)c1cccc(C(F)(F)F)n1 [I-320] | < 10 |
| CN(CCCNc1cccc2c1C(=O)N(C1CCC(=O)NC1=O)C2=O)C(=O)[C@H]1CC[C@H](c2nc3cc(C(C)(C)O)c(NC(=O)c4cccc(C(F)(F)F)n4)cc3s2)CC1 (stereo partly shown) [I-489] | > 200 |
| COc1cc2nn([C@H]3C[C@@H](CN4CC(c5cccc6c5n(C)c(=O)n6C5CCC(=O)NC5=O)C4)C3)cc2cc1NC(=O)c1cccc(C(F)(F)F)n1 (stereo partly shown) [I-50, N-[2-[3-[[3-[1-(2,6-dioxo-3-piperidyl)-3-methyl-2-oxo-benzimidazol-4-yl]azetidin-1-yl]methyl]cyclobutyl]-6-methoxy-indazol-5-yl]-6-(trifluoromethyl)pyridine-2-carboxamide] | 10 to 50 |
| CN(C(=O)[C@H]1CC[C@H](n2cc3cc(NC(=O)c4cccc(C(F)(F)F)n4)ncc3n2)CC1)C1CCN(c2cccc3c2n(C)c(=O)n3C2CCC(=O)NC2=O)CC1 (stereo partly shown) [I-187] | < 10 |
| COc1cc2nn([C@H]3CC[C@H](CN4CCC(c5cccc6c(N7CCC(=O)NC7=O)cncc56)CC4)CC3)cc2cc1NC(=O)c1cccc(C(F)(F)F)n1 [I-97] | < 10 |
| COc1cc2nn([C@H]3CC[C@H](CN4CCN(c5c(C)ccc6c(N7CCC(=O)NC7=O)cncc56)CC4)CC3)cc2cc1NC(=O)c1cccc(C(F)(F)F)n1 [I-331] | < 10 |
| COc1cc2nn([C@H]3CC[C@H](CN4CCN(c5cccc6c5n(C)c(=O)n6C5CCC(=O)NC5=O)CC4)CC3)cc2cc1NC(=O)c1cncc(C#N)c1 (stereo partly shown) [I-165] | < 10 |

| Compound | DC50 [nM] |
| --- | --- |
| COc1cc2nc([C@H]3CC[C@H](CN4CC5(CC(CCNc6cccc7c6C(=O)N(C6CCC(=O)NC6=O)C7=O)C5)C4)CC3)n(C)c2cc1NC(=O)c1cccc(C(F)(F)F)n1 (stereo partly shown) [I-3] | 50 to 100 |
| CCc1cc2nn([C@H]3CC[C@H](CN4CCN(c5cccc6c(N7CCC(=O)NC7=O)cncc56)CC4)CC3)cc2cc1NC(=O)c1cccc(C(F)(F)F)n1 [I-377] | < 10 |
| COc1cc2nn([C@H]3CC[C@H](CN4CCC5(CC4)CC(CCNc4cccc6c4C(=O)N(C4CCC(=O)NC4=O)C6=O)C5)CC3)cc2cc1NC(=O)c1cccc(C(F)(F)F)n1 (stereo partly shown) [I-9] | 50 to 100 |
| CCn1c(=O)n(C2CCC(=O)NC2=O)c2cccc(N3CCN(C[C@H]4CC[C@H](n5cc6cc(NC(=O)c7cccc(C(F)(F)F)n7)c(OC)cc6n5)CC4)CC3)c21 (stereo partly shown) [I-253] | < 10 |
| COc1ccc2c(c1C1CCN(C[C@H]3C[C@H](n4cc5cc(NC(=O)c6cccc(C(F)(F)F)n6)ncc5n4)C3)CC1)n(C)c(=O)n2C1CCC(=O)NC1=O (stereo partly shown) [I-421] | 50 to 100 |
| CC(C)Nc1cc(-n2ccc3cc(C#N)cnc32)ncc1C(=O)NC[C@H]1CC[C@H](CN2CCC(c3cccc4c3n(C)c(=O)n4C3CCC(=O)NC3=O)CC2)CC1 (stereo partly shown) [I-85] | 50 to 100 |
| COc1cc2nn([C@H]3CC[C@H](CN4CCN(c5cccc6c5n(C)c(=O)n6C5CCC(=O)NC5=O)CC4)CC3)cc2cc1NC(=O)c1ccnc(C(F)(F)F)n1 (stereo partly shown) [I-298] | < 10 |
| COc1cc2nn([C@H]3CC[C@H](CN4CCN(c5cccc6c5n(C)c(=O)n6C5CCC(=O)NC5=O)CC4)CC3)cc2cc1NC(=O)c1cccc(C(F)(F)F)c1F (stereo partly shown) [I-216] | < 10 |
| CN(C[C@H]1CC[C@H](n2cc3cc(NC(=O)c4cccc(C(F)(F)F)n4)c(C#N)cc3n2)CC1)C1CCN(c2cccc3c2n(C)c(=O)n3C2CCC(=O)NC2=O)CC1 (stereo partly shown) [I-239] | < 10 |
| N#Cc1cc2nn([C@H]3CC[C@H](CN4CCN(c5cccc6c(N7CCC(=O)NC7=O)cncc56)CC4)CC3)cc2cc1NC(=O)c1cccc(C(F)(F)F)n1 [I-288] | 10 to 50 |
| Cn1c(=O)n(C2CCC(=O)NC2=O)c2cccc(N3CCN(C[C@H]4CC[C@H](n5cc6cc(NC(=O)c7cccc(C(F)(F)F)n7)c([S+](C)[O-])cc6n5)CC4)CC3)c21 (stereo partly shown) [I-308] | < 10 |
| Cc1cc(C2CCN(C[C@H]3CC[C@H](n4cc5cc(NC(=O)c6cccc(C(F)(F)F)n6)c(F)cc5n4)CC3)CC2)c2c(c1)n(C1CCC(=O)NC1=O)c(=O)n2C (stereo partly shown) [I-23] | 100 to 200 |
| COc1cc2nn([C@H]3CC[C@H](CN(C)C4CCN(c5cccc6c5n(C)c(=O)n6C5CCC(=O)NC5=O)CC4)CC3)cc2cc1-n1cc(-c2cccc(C(F)(F)F)n2)nn1 (stereo partly shown) [I-100] | > 200 |
| COc1cc2nn([C@H]3CC[C@H](CN4CCC(c5cccc6c5n(C)c(=O)n6C5CCC(=O)NC5=O)CC4)CC3)cc2cc1NC(=O)c1cncc(Cl)c1 (stereo partly shown) [I-196] | < 10 |
| COc1cc2nc([C@H]3CC[C@H](CN(C)CCNc4cccc5c4C(=O)N(C4CCC(=O)NC4=O)C5=O)CC3)sc2cc1NC(=O)c1cncc(F)c1 (stereo partly shown) [I-481] | > 200 |
| Cc1cccc(C(=O)Nc2cc3sc([C@H]4CC[C@H](CN(C)CCCCNc5cccc6c5C(=O)N(C5CCC(=O)NC5=O)C6=O)CC4)nc3cc2C(C)(C)O)n1 (stereo partly shown) [I-444] | 10 to 50 |
| Cn1c(=O)n(C2CCC(=O)NC2=O)c2cccc(N3CCN(C[C@H]4CC[C@H](n5cc6cc(NC(=O)c7cncc(C#N)c7)c(OC(F)(F)F)cc6n5)CC4)CC3)c21 (stereo partly shown) [I-160] | > 200 |
| COc1cc2nn([C@H]3CC[C@H](CN4CCCN(c5cccc6c(N7CCC(=O)NC7=O)cncc56)CC4)CC3)cc2cc1NC(=O)c1cncc(C#N)c1 [I-289] | > 200 |
| COc1cc2nn([C@H]3C[C@H](CN4CCC(c5c(C)ccc6c5n(C)c(=O)n6C5CCC(=O)NC5=O)CC4)C3)cc2cc1NC(=O)c1cccc(C(F)(F)F)n1 (stereo partly shown) [I-137] | < 10 |
| CC(C)Nc1cc(-n2ccc3cc(C#N)cnc32)ncc1-c1cn([C@H]2CC[C@H](CN3CCC(c4cccc5c4n(C)c(=O)n5C4CCC(=O)NC4=O)CC3)CC2)nn1 (stereo partly shown) [I-159] | < 10 |
| COc1ccc2c(c1N1CCN(C[C@H]3CC[C@H](n4cc(-c5cnc(-n6ccc7cc(C#N)cnc76)cc5NC(C)C)nn4)CC3)CC1)n(C)c(=O)n2C1CCC(=O)NC1=O (stereo partly shown) [I-295] | 10 to 50 |
| COc1cc2nn([C@H]3CC[C@H](CN4CCC(c5cccc6c5n(C)c(=O)n6C5CCC(=O)NC5=O)CC4)CC3)cc2cc1NC(=O)c1cnc(C)c(Cl)c1 (stereo partly shown) [I-134] | > 200 |
| COc1cc2nn([C@H]3CC[C@H](CN4CCC(O[C@H]5C[C@H](c6cccc7c6n(C)c(=O)n7C6CCC(=O)NC6=O)C5)CC4)CC3)cc2cc1NC(=O)c1cccc(C(F)(F)F)n1 (stereo partly shown) [I-386] | 10 to 50 |
